Experimental data: patent US4190670A, “Prostaglandin derivatives” (priority 1974, dated 1980)
Where two headings read alike, the source gives them in different places.

How the values were obtained:
[1] = system: Histamine-induced broncho-constriction; test: Antagonism of histamine-induced broncho-constriction (guinea-pig); format: in vivo; details: Cavia porcellus, iv, read-out: % INHIBITION (± S.D.) of histamine-induced broncho-constriction
Description: The activity of the 18.xi.-, 19.xi.- and 20.xi.-hydroxy-prostaglandin derivatives on the respiratory tract misculature was further confirmed by determination of their ability to antagonize histamine-induced bronchoconstriction. This test is a modification of the guinea-pig multiparameter test, cannulations being carried out only for recording blood pressure, tracheal segment pressure and bronchial resistance.
Histamine was injected i.v. in a dose of 4 μg (as base) at regular intervals throughout the experiment. If extra doses of sodium pentobarbitone had to be administered during the course of the experiment to suppress voluntary respiration, the interval to the next dose of histamine was lengthened.
Test compounds were injected i.v. one minute before histamine in volumes less than 0.5 ml. The substances were washed in with 0.3 ml sterile saline. The lungs were artificially over-ventilated one minute prior to injection of the test compounds.
The ability of the compounds to counteract histamine-induced bronchoconstriction and the increase in tracheal segment pressure was determined using two dose levels--a low one and a high one.

[2] = cited from earlier work
[3] = system: bronchioles (bronchial resistance); test: Guinea-pig multiparameter test: bronchial resistance; format: in vivo; details: anaesthetized guinea-pig
Description: (§1) The selective activity of the hydroxy-prostaglandin derivatives of the present invention was established by a multiparameter guinea-pig test. In this test guinea-pigs weighing 600-900 g are anaesthetized with sodium pentobarbitone (45 mg/kg, i.p.). Supplementary doses of sodium pentobarbitone (3-6 mg i.v.) are administered when required (i.e. when spontaneous respiration appears). The jugular vein is cannulated for the administration of drugs. The guinea-pig is artificially respired with N2 O/O2 (7/3), using a Keuskamp respirator.
(§2) Then the following functions are measured:
b. Bronchial resistance and tracheal segment pressure.
A cannula is inserted into the trachea as close as possible to the thorax. The guinea-pig is artificially ventilated at 55 strokes/min. The pressure changes, assumed to be due to changes caused by the bronchioles, are measured by a pressure transducer attached to a side arm of the cannula. The trachea is occluded at its lower end with a blind-ended cannula, while a cannula is further introduced into the trachea as close as possible to the larynx. The system is completely filled with saline, and connected to a very sensitive pressure transducer. Changes in the pressure measured (cm H2 O) are assumed to reflect changes in the tone of the smooth muscle of the trachea. The trachea segment cannula is inserted with extreme caution so as to avoid disruption of the nerve or blood supply to the segment.

[4] = system: uterus (uterine motility); test: Guinea-pig multiparameter test: uterine contractions; format: in vivo; details: anaesthetized guinea-pig
Description: as §1, §2
d. Measurement of uterine motility.
A polyethylene cannula is inserted into the uterus via the vagina to a depth of 2.5 cm. This is then tied off with a ligature around the cervix. The cannula is connected to a pressure transducer, the whole system being filled with liquid paraffin at a pressure of 10-20 mm Hg.

[5] = system: duodenum (intestinal motility); test: Guinea-pig multiparameter test: intestinal contractions; format: in vivo; details: anaesthetized guinea-pig
Description: as §1, §2
c. Measurement of intestinal motility.
A balloon, containing distilled water and connected to a pressure transducer, is inserted in the duodenum of the guinea-pig. Care is taken on ligaturing the cannula to avoid stricture of the duodenum. The balloon is at a pressure of 10-20 mm Hg.

rabbit eye = test: Irritation following topical application in the rabbit eye (Draize scoring method); format: in vivo
Text: This effect can be studied using the Draize scoring method for determining irritation following topical application in the rabbit eye.

Question: Which inhibition in vivo at 0.001 mg [1] does the source give for `CCC(O)CC[C@H](O)/C=C/[C@H]1CCC(=O)[C@@H]1C/C=C\CCCC(=O)O` (stereo partly drawn) [9-keto-15α,18.xi.-dihydroxy-prosta-5(c),13(t)-dienoic acid] here?
Answer: The inhibition in vivo at 0.001 mg was 45%.

Question: For `CC(O)CCC[C@H](O)/C=C/[C@H]1[C@H](O)CC(=O)[C@@H]1CCCCCCC(=O)O` (stereo partly drawn) [9-keto-11α,15α,19.xi.-trihydroxy-prost-13(t)-enoic acid], which inhibition in vivo at 0.001 mg [1] is on record?
Answer: The inhibition in vivo at 0.001 mg was roughly 60%.

Question: With `O=C(O)CCC/C=C\C[C@H]1C(=O)CC[C@@H]1/C=C/[C@@H](O)CCCCCO` [9-keto-15α,20-dihydroxy-prosta-5(c),13(t)-dienoic acid] as the compound, how does the inhibition in vivo at 0.001 mg [1] read?
Answer: Its inhibition in vivo at 0.001 mg is 60.7%.

Question: For `CCC(O)CC[C@H](O)/C=C/[C@H]1[C@H](O)CC(=O)[C@@H]1C/C=C\CCCC(=O)O` (stereo partly drawn) [9-keto-11α,15α,18.xi.-trihydroxy-prosta-5(c),13(t)-dienoic acid], which inhibition in vivo at 0.001 mg [1] is on record?
Answer: Its inhibition in vivo at 0.001 mg is roughly 35%.

Question: With `CC(O)CCC[C@@H](O)/C=C/[C@H]1CCC(=O)[C@@H]1CCCCCCC(=O)O` (relative stereo) [9-keto-15β,19.xi.-dihydroxy-prost-13(t)-enoic acid] as the compound, how does the inhibition in vivo at 0.5 mg [1] read?
Answer: The inhibition in vivo at 0.5 mg was roughly 85%.

Question: Which “persistant coughing on aerosol use” value [2] does the source give for `CCCCC[C@H](O)/C=C/[C@H]1[C@H](O)CC(=O)[C@@H]1C/C=C\CCCC(=O)O` [PGE2, 9-keto-11α,15α-dihydroxy-prosta-5(c),13(t)-dienoic acid] here?
Answer: The value was “persistant coughing”.

Question: With `CCC(O)CC[C@H](O)/C=C/[C@H]1CCC(=O)[C@@H]1CCCCCCC(=O)O` (relative stereo) [9-keto-15α,18.xi.-dihydroxy-prost-13(t)-enoic acid] as the compound, how does the inhibition in vivo at 0.001 mg [1] read?
Answer: Its inhibition in vivo at 0.001 mg is 25.9%.

Question: What about the inhibition in vivo at 0.1 mg [1] of the same compound?
Answer: Its inhibition in vivo at 0.1 mg is roughly 80%.

Question: And the BRONCHIAL resistance ([3]; dose 100 μg)?
Answer: Its BRONCHIAL resistance is 0.

Question: What about the UTERINE contractions ([4]; dose 100 μg) of the same compound?
Answer: The UTERINE contractions was 0.

Question: What about the INTESTINAL contractions ([5]; dose 100 μg) of the same compound?
Answer: The INTESTINAL contractions was 0.

Question: Which results are given for `CCCCC[C@H](O)/C=C/[C@H]1[C@H](O)CC(=O)[C@@H]1CCCCCCC(=O)O` [PGE1, 9-keto-11α,15α-dihydroxy-prost-13(t)-enoic acid, reference compound]?
Answer: inhibition in vivo at 0.0001 mg ([1]; dose 0.1 μg i.v., one minute before histamine 4 μg i.v.): 27.6%; inhibition in vivo at 0.001 mg ([1]; dose 1 μg i.v., one minute before histamine 4 μg i.v.): 53.2%; inhibition in vivo at 0.005 mg ([1]; dose 5.0 μg i.v., one minute before histamine 4 μg i.v.): ~88%; threshold irritant dose (rabbit eye): 1 μg/eye; BRONCHIAL resistance ([3]; dose 5 μg): 0; UTERINE contractions ([4]; dose 5 μg): 0

Question: What does the source list for `CC(O)CCC[C@H](O)/C=C/[C@H]1CC[C@@H](O)[C@@H]1CCCCCCC(=O)O` (relative stereo) [9β,15α,19.xi.-trihydroxy-prost-13(t)-enoic acid]?
Answer: inhibition in vivo at 0.1 mg [1]: 62.5%; BRONCHIAL resistance ([3]; dose 500 μg): 0; UTERINE contractions ([4]; dose 500 μg): 0; INTESTINAL contractions ([5]; dose 500 μg): 0

Question: For `CCC(O)CC[C@H](O)/C=C/[C@H]1CC[C@@H](O)[C@@H]1CCCCCCC(=O)O` (relative stereo) [9β,15α,18.xi.-trihydroxy-prost-13(t)-enoic acid], which inhibition in vivo at 0.1 mg [1] is on record?
Answer: Its inhibition in vivo at 0.1 mg is 28.1%.

Question: And the BRONCHIAL resistance ([3]; dose 500 μg)?
Answer: Its BRONCHIAL resistance is 0.

Question: And the UTERINE contractions ([4]; dose 500 μg)?
Answer: Its UTERINE contractions is 0.

Question: And the INTESTINAL contractions ([5]; dose 500 μg)?
Answer: The INTESTINAL contractions was 0.

Question: With `CC(O)CCC[C@H](O)/C=C/[C@H]1[C@H](O)CC(=O)[C@@H]1C/C=C\CCCC(=O)O` (stereo partly drawn) [9-keto-11α,15α,19.xi.-trihydroxy-prosta-5(c),13(t)-dienoic acid] as the compound, how does the inhibition in vivo at 0.001 mg [1] read?
Answer: The inhibition in vivo at 0.001 mg was roughly 70%.

Question: Which results are given for `O=C(O)CCCCCC[C@H]1[C@H](O)CC[C@@H]1/C=C/[C@@H](O)CCCCCO` (relative stereo) [9β,15α,20-trihydroxy-prost-13(t)-enoic acid]?
Answer: inhibition in vivo at 0.1 mg [1]: 52.9%; BRONCHIAL resistance ([3]; dose 500 μg): 0; UTERINE contractions ([4]; dose 500 μg): 0; INTESTINAL contractions ([5]; dose 500 μg): 0

Question: Which inhibition in vivo at 0.001 mg [1] does the source give for `CC(O)CCC[C@H](O)/C=C/[C@H]1CCC(=O)[C@@H]1CCCCCCC(=O)O` (relative stereo) [9-keto-15α,19.xi.-dihydroxy-prost-13(t)-enoic acid] here?
Answer: The inhibition in vivo at 0.001 mg was 23.9%.

Question: What about the inhibition in vivo at 0.1 mg [1] of the same compound?
Answer: Its inhibition in vivo at 0.1 mg is 88.1%.

Question: And the BRONCHIAL resistance ([3]; dose 100 μg)?
Answer: The BRONCHIAL resistance was 0.

Question: And the UTERINE contractions ([4]; dose 100 μg)?
Answer: The UTERINE contractions was 0.

Question: What about the INTESTINAL contractions ([5]; dose 100 μg) of the same compound?
Answer: Its INTESTINAL contractions is 0.

Question: With `CCC(O)CC[C@H](O)/C=C/[C@H]1[C@H](O)CC(=O)[C@@H]1CCCCCCC(=O)O` (stereo partly drawn) [9-keto-11α,15α,18.xi.-trihydroxy-prost-13(t)-enoic acid] as the compound, how does the inhibition in vivo at 0.001 mg [1] read?
Answer: Its inhibition in vivo at 0.001 mg is roughly 70%.

Question: For `CC(O)CCC[C@@H](O)/C=C/[C@H]1CC[C@H](O)[C@@H]1CCCCCCC(=O)O` (relative stereo) [9α,15β,19.xi.-trihydroxy-prost-13-(t)-enoic acid], which inhibition in vivo at 0.5 mg [1] is on record?
Answer: Its inhibition in vivo at 0.5 mg is roughly 60%.

Question: Which inhibition in vivo at 0.001 mg [1] does the source give for `CC(O)CCC[C@H](O)/C=C/[C@H]1CCC(=O)[C@@H]1C/C=C\CCCC(=O)O` (stereo partly drawn) [9-keto-15α,19.xi.-dihydroxy-prosta-5(c),13(t)-dienoic acid] here?
Answer: Its inhibition in vivo at 0.001 mg is 50.3%.
